Experimental findings from patent publication US8598170B2, “Dual-acting oxazole antihypertensive agents” (Theravance, Inc., priority 2009, dated 2013) are described below.

Structures are written as SMILES. Where only a bound is given, the exact number is not on record here.

Experiment [1] has as its target T1, human AT1 receptor (Homo sapiens, UniProt P30556).
T1 construct: expressed in transfected cells; host or cells: CHO-K1
T1 sequence (P30556 1-359): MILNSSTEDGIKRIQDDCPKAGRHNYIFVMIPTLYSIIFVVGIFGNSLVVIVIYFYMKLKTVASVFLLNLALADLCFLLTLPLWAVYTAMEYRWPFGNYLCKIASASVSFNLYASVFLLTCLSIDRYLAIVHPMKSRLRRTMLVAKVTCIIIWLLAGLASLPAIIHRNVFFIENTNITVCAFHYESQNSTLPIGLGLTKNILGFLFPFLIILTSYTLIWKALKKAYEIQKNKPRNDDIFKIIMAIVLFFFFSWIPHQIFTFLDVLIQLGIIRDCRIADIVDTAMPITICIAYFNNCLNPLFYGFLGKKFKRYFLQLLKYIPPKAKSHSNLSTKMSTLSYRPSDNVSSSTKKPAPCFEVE
In words: AT1 radioligand binding assay ([Eu]AngII displacement, CHO-K1 membranes). Conditions: read-out: pKi at the AT1 receptor (converted). As for the experimental part: These in vitro assays were used to assess the ability of test compounds to bind to the AT1 and the AT2 receptors.
Chinese hamster ovary (CHO-K1) derived cell lines stably expressing the cloned human AT1 or AT2 receptors, respectively, were grown in HAM's-F 12 medium supplemented with 10% fetal bovine serum, 10 μg/ml penicillin/streptomycin, and […] in a 5% CO2 humidified incubator at 37° C. AT2 receptor expressing cells were grown in the additional presence of 100 nM PD123,319 (AT2 antagonist). When cultures reached 80-95% confluence, the cells were washed thoroughly in PBS and lifted with 5 mM EDTA. Cells were pelleted by centrifugation and snap frozen in MeOH-dry ice and stored at −80° C. until further use.
For membrane preparation, cell pellets were resuspended in lysis buffer (25 mM Tris/HCl pH 7.5 at 4° C., 1 mM EDTA, and one tablet of Complete Protease Inhibitor Cocktail Tablets with 2 mM EDTA per 50 mL buffer (Roche cat. #1697498, Roche Molecular Biochemicals, Indianapolis, Ind.)) and homogenized using a tight-fitting Dounce glass homogenizer (10 strokes) on ice. The homogenate was centrifuged at 1000×g, the supernatant was collected and centrifuged at 20,000×g. […] Protein concentration of the membrane suspension was determined by the method described in Bradford (1976) Anal Biochem. 72:248-54. […]

Experiment [2] deals with T2, NEP enzyme (Homo sapiens, UniProt P08473).
T2 construct: purchased R&D Systems, Minneapolis, Minn; 1182-ZN
T2 sequence (P08473 52-750 limits assumed): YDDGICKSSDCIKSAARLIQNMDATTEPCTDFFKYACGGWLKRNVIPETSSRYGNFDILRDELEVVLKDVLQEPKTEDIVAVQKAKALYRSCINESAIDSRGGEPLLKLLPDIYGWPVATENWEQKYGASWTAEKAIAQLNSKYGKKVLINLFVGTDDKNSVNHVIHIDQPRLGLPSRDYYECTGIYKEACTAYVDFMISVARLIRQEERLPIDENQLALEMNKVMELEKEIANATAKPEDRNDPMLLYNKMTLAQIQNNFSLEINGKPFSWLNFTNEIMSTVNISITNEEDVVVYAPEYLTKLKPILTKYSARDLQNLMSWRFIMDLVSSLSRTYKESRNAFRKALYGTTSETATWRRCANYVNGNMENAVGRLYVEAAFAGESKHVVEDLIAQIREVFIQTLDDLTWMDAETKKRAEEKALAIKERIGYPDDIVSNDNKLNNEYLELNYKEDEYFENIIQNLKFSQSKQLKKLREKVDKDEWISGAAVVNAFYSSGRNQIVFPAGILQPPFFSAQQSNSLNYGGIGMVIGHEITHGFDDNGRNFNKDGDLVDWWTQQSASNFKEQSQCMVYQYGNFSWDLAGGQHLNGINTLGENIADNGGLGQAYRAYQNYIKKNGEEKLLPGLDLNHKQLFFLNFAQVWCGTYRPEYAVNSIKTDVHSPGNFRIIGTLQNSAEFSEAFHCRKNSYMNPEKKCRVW
In words: In vitro NEP enzyme inhibition assay (fluorogenic peptide substrate). Type of experiment: biochemical. Conditions: read-out: pIC50 for the NEP enzyme (converted). The method, then:
The inhibitory activities of compounds at human and rat NEP and human ACE were determined using in vitro assays as described below.
Rat NEP was prepared from the kidneys of adult Sprague Dawley rats. Whole kidneys were washed in cold PBS and brought up in ice-cold lysis buffer (1% Triton X-114, 150 mM NaCl, 50 mM Tris pH 7.5; Bordier (1981) J. Biol. Chem. 256:1604-1607) in a ratio of 5 mL of buffer for every gram of kidney. Samples were homogenized using a polytron hand held tissue grinder on ice. Homogenates were centrifuged at 1000×g in a swinging bucket rotor for 5 minutes at 3° C. The pellet was resuspended in 20 mL of ice cold lysis buffer and incubated on ice for 30 minutes. […] Protein concentrations were quantitated using a BCA detection system with BSA as a standard. […]
The assays were performed in 384-well white opaque plates at room temperature using the respective fluorogenic peptides at a concentration of 10 μM in assay buffer (50 mM Tris/HCl at 25° C., 100 mM NaCl, 0.01% Tween-20, 1 μM Zn, 0.025% BSA). […] The rat NEP enzyme preparation was used at a concentration that yielded quantitative proteolysis of 3 μM of Mca-RRL within 20 minutes at room temperature. […]
Plates were read on a fluorometer with excitation and emission wavelengths set to 320 nm and 405 nm, respectively. […]

On to `CCCc1oc(C(=O)N[C@H](Cc2ccccc2)[C@@H](O)C(=O)O)nc1Cc1ccc(-c2ccccc2-c2nnn[nH]2)cc1` [Example 1, (2R,3R)-2-Hydroxy-4-phenyl-3-({5-propyl-4-[2′-(1H-tetrazol-5-yl)-biphenyl-4-ylmethyl]-oxazole-2-carbonyl}amino)butyric Acid], for which, in experiment [1], the Ki is under 31.6 nM. Further, the IC50 in experiment [2] is under 1000 nM.
